Assay results published in PubChem BioAssay AID330 (DTP/NCI, 2004).
Where “and” joins values, the source holds several entries; their conditions need not be identical. Equal entries are not always repeated. Inconclusive results and toxic doses are left out.

System: P388 leukemia ip, CD2F1 mice, survival T/C
Test: NCI In Vivo Anticancer Drug Screen. Data for tumor model P388 Leukemia (intraperitoneal) in CD2F1 (CDF1) mice
Conditions: endpoint: median survival time, higher = longer survival
In short: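 Mice carrying the transplanted tumor received test compound or vehicle. Survival was recorded in each group, and the value is the treated-group measurement divided by that of the vehicle-treated control group.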

[1] = dose: 100.0 mg/kg/injection, schedule: Q01DX009 (ip), vehicle: saline with Tween-80
[2] = dose: 200.0 mg/kg/injection, schedule: Q01DX009 (ip), vehicle: saline with Tween-80
[3] = dose: 100.0 mg/kg/injection, schedule: Q04DX003 (ip), vehicle: saline with Tween-80
[4] = dose: 200.0 mg/kg/injection, schedule: Q04DX003 (ip), vehicle: saline with Tween-80
[5] = dose: 400.0 mg/kg/injection, schedule: Q04DX003 (ip), vehicle: saline with Tween-80
[6] = dose: 60.0 mg/kg/injection, schedule: Q01DX005 (ip), vehicle: saline with Tween-80
[7] = dose: 120.0 mg/kg/injection, schedule: Q01DX005 (ip), vehicle: saline with Tween-80
[8] = dose: 240.0 mg/kg/injection, schedule: Q01DX005 (ip), vehicle: saline with Tween-80
[9] = dose: 50.0 mg/kg/injection, schedule: Q01DX009 (ip), vehicle: saline
[10] = dose: 100.0 mg/kg/injection, schedule: Q01DX009 (ip), vehicle: saline
[11] = dose: 400.0 mg/kg/injection, schedule: Q01DX009 (ip), vehicle: saline with Tween-80
[12] = dose: 50.0 mg/kg/injection, schedule: Q01DX009 (ip), vehicle: saline with Tween-80
[13] = dose: 25.0 mg/kg/injection, schedule: Q01DX009 (ip), vehicle: saline with Tween-80

`Cc1ccc(CN(S(=O)(=O)c2ccc(C)cc2)S(=O)(=O)c2ccc(C)cc2)cc1` was tested, and the T/C [1] was 88 % of control and the T/C [2] was 113 % of control.

`CCN(CC)C(=S)N/N=C(\C)c1ccccn1` was tested, and the T/C (dose: 6.25 mg/kg/injection, schedule: Q01DX009 (ip), vehicle: saline with Tween-80) was 106 % of control and the T/C (dose: 12.5 mg/kg/injection, schedule: Q01DX009 (ip), vehicle: saline with Tween-80) was 89 % of control.

In the case of `Nc1ccc(C(=O)Nc2ccccc2N)cc1`, the T/C [3] is reported as 100 % of control, the T/C [4] is reported as 99 % of control and the T/C [5] is reported as 108 % of control.

With `Cc1ccc(C)n1-c1ccc(OCC(N)=O)cc1` the T/C [6] was 104 % of control, the T/C [7] was 97 % of control and the T/C [8] was 90 % of control.

`CC(=O)N=c1sccn1CC(=O)c1ccccc1` was tested, and the T/C (dose: 25.0 mg/kg/injection, schedule: Q04DX003 (ip), vehicle: Klucel (hydroxypropylcellulose) (HPC)) was 119 % of control, the T/C (dose: 50.0 mg/kg/injection, schedule: Q04DX003 (ip), vehicle: Klucel (hydroxypropylcellulose) (HPC)) was 96 % of control and the T/C (dose: 100.0 mg/kg/injection, schedule: Q01DX001 (ip), vehicle: Klucel (hydroxypropylcellulose) (HPC)) was 100 % of control. The T/C (dose: 200.0 mg/kg/injection, schedule: Q01DX001 (ip), vehicle: Klucel (hydroxypropylcellulose) (HPC)) was 100 % of control and the T/C (dose: 400.0 mg/kg/injection, schedule: Q01DX001 (ip), vehicle: Klucel (hydroxypropylcellulose) (HPC)) was 101 % of control.

With `Cc1cnc(=O)[nH]c1NO` the T/C (dose: 100.0 mg/kg/injection, schedule: Q04DX002 (ip), vehicle: Klucel (hydroxypropylcellulose) (HPC)) was 102 % of control, the T/C (dose: 200.0 mg/kg/injection, schedule: Q04DX002 (ip), vehicle: Klucel (hydroxypropylcellulose) (HPC)) was 100 % of control and the T/C (dose: 400.0 mg/kg/injection, schedule: Q04DX002 (ip), vehicle: Klucel (hydroxypropylcellulose) (HPC)) was 98 % of control.

With `c1ccc(-c2nc3ccccc3n2CCc2ccncc2)nc1` the T/C (dose: 50.0 mg/kg/injection, schedule: Q01DX005 (ip), vehicle: Klucel (hydroxypropylcellulose) (HPC)) was 107 % of control and the T/C (dose: 100.0 mg/kg/injection, schedule: Q01DX005 (ip), vehicle: Klucel (hydroxypropylcellulose) (HPC)) was 104 % of control.

`O=C1C2C3CCC(O3)C2C(=O)N1CO` (stereo not given) was tested, and the T/C (dose: 60.0 mg/kg/injection, schedule: Q01DX005 (ip), vehicle: saline) was 112 % of control and the T/C (dose: 120.0 mg/kg/injection, schedule: Q01DX005 (ip), vehicle: saline) was 124 % of control.

In the case of `N=C(/C(=C/c1ccccc1)c1ccccc1)c1ccccc1`, the T/C (dose: 50.0 mg/kg/injection, schedule: Q01DX009 (ip), vehicle: Klucel (hydroxypropylcellulose) (HPC)) is reported as 107 % of control, the T/C (dose: 100.0 mg/kg/injection, schedule: Q01DX009 (ip), vehicle: Klucel (hydroxypropylcellulose) (HPC)) is reported as 113 % of control and the T/C (dose: 200.0 mg/kg/injection, schedule: Q01DX009 (ip), vehicle: Klucel (hydroxypropylcellulose) (HPC)) is reported as 118 % of control.

`CC1(c2ccccc2)CCC(=O)NC1=O` (stereo not given) was tested, and the T/C [6] was 102 % of control, the T/C [7] was 101 % of control and the T/C [8] was 106 % of control.

For `CN(C)/C(=N\N=C(/c1ccc(Cl)cc1)N(C)C)c1ccc(Cl)cc1`, the T/C [3] was 97 % of control, the T/C [4] was 105 % of control and the T/C [5] was 105 % of control.

With `CC(=O)N(O)c1ccc(C(N)=O)cc1` the T/C [9] was 99 % of control, the T/C [10] was 106 % of control and the T/C (dose: 200.0 mg/kg/injection, schedule: Q01DX009 (ip), vehicle: saline) was 106 % of control.

In the case of `O=C(O)c1ccc(CCCBr)cc1`, the T/C [1] is reported as 105 % of control, the T/C [2] is reported as 100 % of control and the T/C [11] is reported as 97 % of control.

In the case of `CC(C)(C)N=C(CCN1CCCCC1)Nc1cccc(Cl)c1`, the T/C [12] is reported as 110 % of control, the T/C [1] is reported as 106 % of control and the T/C [2] is reported as 98 % of control.

`O=S1(=O)OC(c2ccc(O)c(O)c2)(c2ccc(O)c(O)c2)c2ccccc21` was tested, and the T/C [10] was 100 % of control and 98 % of control.

In the case of `CN1CC(=O)NC2(CCCC2)C1=O`, the T/C (dose: 37.5 mg/kg/injection, schedule: Q04DX002 (ip), vehicle: Klucel (hydroxypropylcellulose) (HPC)) is reported as 102 % of control, the T/C (dose: 75.0 mg/kg/injection, schedule: Q04DX002 (ip), vehicle: Klucel (hydroxypropylcellulose) (HPC)) is reported as 101 % of control and the T/C (dose: 150.0 mg/kg/injection, schedule: Q04DX002 (ip), vehicle: Klucel (hydroxypropylcellulose) (HPC)) is reported as 99 % of control. For the same compound, the T/C (dose: 300.0 mg/kg/injection, schedule: Q04DX002 (ip), vehicle: Klucel (hydroxypropylcellulose) (HPC)) was 105 % of control.

In the case of `FC(F)(F)C(F)(F)c1nc2nc(Cl)c(Cl)nc2[nH]1`, the T/C (dose: 50.0 mg/kg/injection, schedule: Q04DX003 (ip), vehicle: other) is reported as 100 % of control, the T/C (dose: 100.0 mg/kg/injection, schedule: Q04DX003 (ip), vehicle: other) is reported as 118 % of control and the T/C (dose: 200.0 mg/kg/injection, schedule: Q04DX003 (ip), vehicle: other) is reported as 113 % of control.

`CCCCOCC(=O)O` was tested, and the T/C (dose: 25.0 mg/kg/injection, schedule: Q01DX009 (ip), vehicle: saline) was 94 % of control, the T/C [9] was 97 % of control and the T/C [10] was 93 % of control.

With `O=[N+]([O-])C(CO)(CO)CC(F)(F)F` the T/C (dose: 6.25 mg/kg/injection, schedule: Q04DX003 (ip), vehicle: saline) was 100 % of control.

With `C1CCOCCOCCOCCOCCOCCCCCC2(CC1)OCCO2` the T/C (dose: 50.0 mg/kg/injection, schedule: Q01DX005 (ip), vehicle: saline with Tween-80) was 96 % of control, the T/C (dose: 100.0 mg/kg/injection, schedule: Q01DX005 (ip), vehicle: saline with Tween-80) was 94 % of control and the T/C (dose: 200.0 mg/kg/injection, schedule: Q01DX005 (ip), vehicle: saline with Tween-80) was 96 % of control.

With `CC(=O)Nc1ccc2c(c1)C(N)c1ccccc1-2` (stereo not given) the T/C [3] was 104 % of control and the T/C [4] was 118 % of control.

For `FC(F)(F)c1ccc2c(c1)N(CCCCl)c1ccccc1S2`, the T/C (dose: 50.0 mg/kg/injection, schedule: Q04DX003 (ip), vehicle: saline) was 94 % of control, the T/C (dose: 100.0 mg/kg/injection, schedule: Q04DX003 (ip), vehicle: saline) was 99 % of control and the T/C (dose: 200.0 mg/kg/injection, schedule: Q04DX003 (ip), vehicle: saline) was 104 % of control. The T/C (dose: 400.0 mg/kg/injection, schedule: Q04DX003 (ip), vehicle: saline) was 98 % of control.

For `N#Cc1nc2c(nc1C#N)-c1ccccc1/C2=C1/C(=O)Cc2ccccc21`, the T/C [6] was 98 % of control, the T/C [7] was 99 % of control and the T/C [8] was 102 % of control.

With `N[C@H](C(=O)O)[C@H]1ON=C(Cl)[C@@H]1O` the T/C (dose: 0.13 mg/kg/injection, schedule: Q01DX009 (ip), vehicle: saline) was 104 % of control and 98 % of control, the T/C (dose: 0.25 mg/kg/injection, schedule: Q01DX009 (ip), vehicle: saline) was 106 % of control and 113 % of control and the T/C (dose: 0.5 mg/kg/injection, schedule: Q01DX009 (ip), vehicle: saline) was 112 % of control. The T/C (dose: 1.0 mg/kg/injection, schedule: Q01DX009 (ip), vehicle: saline) was 117 % of control and 121 % of control, the T/C (dose: 2.0 mg/kg/injection, schedule: Q01DX009 (ip), vehicle: saline) was 124 % of control and the T/C (dose: 4.0 mg/kg/injection, schedule: Q01DX009 (ip), vehicle: saline) was 153 % of control. The T/C (dose: 8.0 mg/kg/injection, schedule: Q01DX009 (ip), vehicle: saline) was 153 % of control and the T/C (dose: 16.0 mg/kg/injection, schedule: Q01DX009 (ip), vehicle: saline) was 198 % of control.

`CCCCCCC(=O)/C=C/c1ccc(O)cc1` was tested, and the T/C [12] was 105 % of control, the T/C [1] was 105 % of control and the T/C [2] was 105 % of control.

With `COc1ccc2c(c1OC)C(=O)O[C@@H]2[C@H]1c2c(cc3c(c2OC)OCO3)CCN1C` the T/C (dose: 62.5 mg/kg/injection, schedule: Q01DX010 (ip), vehicle: saline) was 100 % of control and the T/C (dose: 125.0 mg/kg/injection, schedule: Q01DX010 (ip), vehicle: saline) was 95 % of control.

With `O=c1[nH]c(=O)c2nc(-c3ccc4c(c3)OCO4)cnc2[nH]1` the T/C (dose: 100.0 mg/kg/injection, schedule: Q04DX003 (ip), vehicle: lactic acid) was 93 % of control and the T/C (dose: 200.0 mg/kg/injection, schedule: Q04DX003 (ip), vehicle: lactic acid) was 87 % of control.

In the case of `Nc1cc(Cl)nc(N)n1`, the T/C [13] is reported as 96 % of control, the T/C [12] is reported as 97 % of control and the T/C [1] is reported as 101 % of control. The T/C [2] was 105 % of control and the T/C [11] was 100 % of control.

With `ClCc1ccc(Oc2ccc(CCl)cc2)cc1` the T/C (dose: 12.5 mg/kg/injection, schedule: Q01DX009 (ip), vehicle: Klucel (hydroxypropylcellulose) (HPC)) was 120 % of control.

With `S=P([S][Sn]([S]P(=S)(c1ccccc1)c1ccccc1)([c]1ccccc1)[c]1ccccc1)(c1ccccc1)c1ccccc1` the T/C (dose: 1.56 mg/kg/injection, schedule: Q01DX005 (ip), vehicle: Klucel (hydroxypropylcellulose) (HPC)) was 108 % of control and the T/C (dose: 3.12 mg/kg/injection, schedule: Q01DX005 (ip), vehicle: Klucel (hydroxypropylcellulose) (HPC)) was 117 % of control.

With `O=[N+]([O-])c1cccc(N=Nn2cccc2)c1` the T/C [13] was 100 % of control, the T/C [12] was 100 % of control and the T/C [1] was 109 % of control.
